Here are results for 35 compounds from patent US11603373B2, “TDO2 and IDO1 inhibitors” (Genentech, Inc., priority 2017, dated 2023).

By EC50 is commonly meant the concentration that produces a half-maximal response.

For assay [1], the target named is T1, TDO2 (SW48 cells, high TDO expressing cells) (Homo sapiens, UniProt P48775).
T1 construct: SW48 cells (high TDO expressing cells); endogenous in cells; host or cells: SW48 cells
Description: NFK GreenScreen cell assay, inhibition of TDO in SW48 cells. The format is cell-based. Particulars: read-out: TDO2 Cell Fluor EC50. From the text:
(§1) Cells are counted on a Vi-Cell (Beckman Coulter). […] The final DMSO concentration is 0.5%.

Assay [2] has as its target T2, IDO1 (A172+IFNg cells, high IDO expressing cells) (Homo sapiens, UniProt P14902).
T2 construct: A172+IFNg cells (high IDO expressing cells); endogenous in cells; host or cells: A172 cells induced with 100 ng/ml IFNγ
Description: NFK GreenScreen cell assay, inhibition of IDO in A172+IFNg cells. The class given is cell-based. Particulars: read-out: IDO cell Fluor EC50.
Text: as §1

T1 sequence (P48775 whole entry): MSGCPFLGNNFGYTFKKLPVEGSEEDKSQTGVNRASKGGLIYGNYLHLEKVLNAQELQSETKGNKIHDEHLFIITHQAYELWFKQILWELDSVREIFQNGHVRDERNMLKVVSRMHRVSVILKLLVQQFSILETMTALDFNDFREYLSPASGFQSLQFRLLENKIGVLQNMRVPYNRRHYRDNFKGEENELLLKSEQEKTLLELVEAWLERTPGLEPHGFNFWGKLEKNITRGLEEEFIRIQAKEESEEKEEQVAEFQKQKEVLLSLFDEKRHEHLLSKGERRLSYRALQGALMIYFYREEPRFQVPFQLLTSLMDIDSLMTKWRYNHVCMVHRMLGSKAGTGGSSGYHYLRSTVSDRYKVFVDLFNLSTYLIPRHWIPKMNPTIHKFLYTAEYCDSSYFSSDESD
T2 sequence (P14902 whole entry): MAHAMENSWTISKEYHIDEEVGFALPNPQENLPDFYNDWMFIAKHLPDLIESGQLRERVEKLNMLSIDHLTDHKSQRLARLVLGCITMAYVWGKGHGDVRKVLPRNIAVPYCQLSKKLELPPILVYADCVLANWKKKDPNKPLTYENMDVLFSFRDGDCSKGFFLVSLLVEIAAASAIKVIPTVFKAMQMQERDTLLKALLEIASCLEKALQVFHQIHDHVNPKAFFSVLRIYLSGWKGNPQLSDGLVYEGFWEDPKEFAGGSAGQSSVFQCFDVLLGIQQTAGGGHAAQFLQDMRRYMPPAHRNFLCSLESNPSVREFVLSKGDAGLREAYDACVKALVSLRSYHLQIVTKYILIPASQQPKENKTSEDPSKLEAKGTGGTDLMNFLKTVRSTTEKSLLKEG

For `CC(C)(C)OC(=O)N1[C@@H]2CC[C@H]1C[C@@]1(C[C@@H]([C@@H]3c4ccccc4-c4cncn43)[C@@H]1O)C2` (single isomer, unassigned) [Example 12m], the EC50 is 15000 nM in assay [1] and 2000 nM in assay [2].

Regarding `NS(=O)(=O)N1CCC2(CC[C@H]([C@H]3c4ccccc4-c4cncn43)[C@H]2O)CC1` (single isomer, unassigned) [Example 4b], the EC50 worked out at 510 nM in assay [1] and 16000 nM in assay [2].

For `O=S(=O)(c1c[nH]cn1)N1CCC2(CCC(C3c4ccccc4-c4cncn43)C2O)CC1` (single isomer, unassigned) [compound 59, 8-((1H-imidazol-4-yl)sulfonyl)-2-(5H-imidazo[5,1-a]isoindol-5-yl)-8-azaspiro[4.5]decan-1-ol], the EC50 in assay [1] is 2000 nM; in assay [2] it was 2800 nM.

As to `CC(C)(C)OC(=O)N1CC2(CC[C@H]([C@H]3c4ccccc4-c4cncn43)[C@@H]2O)C1` (single isomer, unassigned) [Example 3h], the EC50 in assay [1] came to 1200 nM; in assay [2], 200 nM.

Consider `CC(C)(C)OC(=O)N1CC2(CC[C@@H]([C@@H]3c4ccccc4-c4cncn43)[C@@H]2O)C1` (single isomer, unassigned) [Example 3c], for which the EC50 in assay [1] turned out to be 14000 nM; in assay [2], 13000 nM.

On to `CC(C)(C)OC(=O)N1CCC2(CC[C@H]([C@@H]3c4ccccc4-c4cncn43)[C@@H]2O)CC1` (single isomer, unassigned) [Example 2d], for which the EC50 worked out at 3700 nM in assay [1] and 1600 nM in assay [2].

With `CC(C)(C)OC(=O)N[C@H]1CC[C@@]2(CC1)C[C@@H]([C@@H]1c3ccccc3-c3cncn31)[C@H]2O` (single isomer, unassigned) [Example 24d], the EC50 in assay [1] was 2500 nM; in assay [2], 1100 nM.

On to `CC(C)(C)OC(=O)N1CC2(CC[C@H]([C@H]3c4ccccc4-c4cncn43)[C@H]2O)C1` (single isomer, unassigned) [Example 3d], for which the EC50 in assay [1] was found to be 130 nM; in assay [2] it was 4000 nM.

Take `CN1CC(C(=O)N2CCC3(CC2)CC(C2c4ccccc4-c4cncn42)C3O)CC1=O` (stereo not shown) [compound 53, 4-[3-hydroxy-2-(5H-imidazo[1,5-b]isoindol-5-yl)-7-azaspiro[3.5]nonane-7-carbonyl]-1-methyl-pyrrolidin-2-one]: the EC50 worked out at 9900 nM in assay [1] and 6700 nM in assay [2].

In the case of `O=C(OCC(F)F)N1CCC2(CC1)C[C@@H]([C@H]1c3ccccc3-c3cncn31)[C@H]2O` [compound 57, 2,2-difluoroethyl (2S,3R)-3-hydroxy-2-[(5S)-5H-imidazo[1,5-b]isoindol-5-yl]-7-azaspiro[3.5]nonane-7-carboxylate], the EC50 in assay [1] came out at 260 nM; in assay [2] it was 87 nM.

With `N#CCS(=O)(=O)N1CCC2(CC1)C[C@H]([C@@H]1c3ccccc3-c3cncn31)[C@@H]2O` [Example 21c, (2R,3S)-2-[[3-hydroxy-2-((5R)-5H-imidazo[1,5-b]isoindol-5-yl)-7-azaspiro[3.5]nonan-7-yl]sulfonyl]acetonitrile], the EC50 worked out at 5900 nM in assay [1] and 4800 nM in assay [2].

On to `NS(=O)(=O)N1CCC2(CC1)C[C@@H]([C@@H]1c3ccccc3-c3cncn31)[C@@H]2O` (single isomer, unassigned) [Example 11h], for which, in assay [1], the EC50 was found to be 11000 nM.

Take `CC(C)(C)OC(=O)N1CC2(CC[C@@H]([C@@H]3c4ccccc4-c4cncn43)[C@H]2O)C1` (single isomer, unassigned) [Example 3g]: the EC50 came out at 14000 nM in assay [1] and 8200 nM in assay [2].

Regarding `COC(=O)N1CCC2(CC[C@@H]([C@H]3c4ccccc4-c4cncn43)[C@H]2O)CC1` (single isomer, unassigned) [Example 9a], the half-maximal effective concentration (EC50) in assay [1] worked out at 21000 nM; in assay [2], 18000 nM.

For `O=C([C@@H]1CC1(F)F)N1CCC2(CC[C@@H]([C@H]3c4ccccc4-c4cncn43)[C@H]2O)CC1` (single isomer, unassigned) [Example 25a], the values for the EC50 in assay [1] and in assay [2] were 81 nM and 34 nM, respectively.

As for `CS(=O)(=O)N1CCC2(CC1)C[C@@H]([C@@H]1c3ccccc3-c3cncn31)[C@@H]2O` (single isomer, unassigned) [Example 6h], the values for the half-maximal effective concentration (EC50) in assay [1] and in assay [2] were 8600 nM and 6500 nM, respectively.

`CC(C)(C)OC(=O)N1CC2CCC(C1)C21C[C@@H]([C@H]2c3ccccc3-c3cncn32)[C@@H]1O` (stereo partly drawn) [Example 22h, tert-butyl (2′S,3′S)-2′-hydroxy-3′-((S)-5H-imidazo[5,1-a]isoindol-5-yl)-3-azaspiro[bicyclo[3.2.1]octane-8,1′-cyclobutane]-3-carboxylate]: the EC50 in assay [1] stood at 4000 nM; in assay [2], 2800 nM.

As to `CC(C)(C)OC(=O)N1[C@@H]2CC[C@H]1C[C@]1(C[C@@H]([C@@H]3c4ccccc4-c4cncn43)[C@@H]1O)C2` (single isomer, unassigned) [Example 12e], the figures for the EC50 in assay [1] and in assay [2] were 1500 nM and 3900 nM, respectively.

Take `NS(=O)(=O)N1CCC2(CC[C@H]([C@@H]3c4ccccc4-c4cncn43)[C@@H]2O)CC1` (single isomer, unassigned) [Example 4d]: the EC50 in assay [1] came to 73 nM; in assay [2], 110 nM.

`CS(=O)(=O)N1CCC2(CC1)C[C@H]([C@H]1c3ccccc3-c3cncn31)[C@H]2O` (single isomer, unassigned) [Example 6g]: the results for the EC50 in assay [1] and in assay [2] were 1230 nM and 4680 nM, respectively.

For `CC(C)(C)OC(=O)N1CCC2(CC[C@H]([C@H]3c4ccccc4-c4cncn43)[C@H]2O)CC1` (single isomer, unassigned) [Example 2b], the figures for the EC50 in assay [1] and in assay [2] were 240 nM and 410 nM, respectively.

In the case of `Cc1ccncc1S(=O)(=O)N1CCC2(CC1)C[C@@H]([C@H]1c3ccccc3-c3cncn31)[C@H]2O` [compound 32, (1R,2S)-2-((S)-5H-imidazo[5,1-a]isoindol-5-yl)-7-((4-methylpyridin-3-yl)sulfonyl)-7-azaspiro[3.5]nonan-1-ol], the EC50 in assay [1] turned out to be 300 nM; in assay [2], 49 nM.

For the compound `CC(=O)N1CCC2(CC[C@H]([C@@H]3c4ccccc4-c4cncn43)[C@@H]2O)CC1` (single isomer, unassigned) [Example 10b], the half-maximal effective concentration (EC50) stood at 170 nM in assay [1] and 240 nM in assay [2].

With `O=S(=O)(C(F)F)N1CCC2(CC1)C[C@@H]([C@H]1c3ccccc3-c3cncn31)[C@H]2O` (single isomer, unassigned) [Example 14b], the EC50 came out at 130 nM in assay [1] and 68 nM in assay [2].

Consider `CC(C)(C)OC(=O)N[C@H]1CC[C@@]2(CC1)C[C@H]([C@H]1c3ccccc3-c3cncn31)[C@@H]2O` (single isomer, unassigned) [Example 24e], for which the EC50 in assay [1] worked out at 16000 nM; in assay [2], 10000 nM.

Consider `CC(C)(C)OC(=O)N1CC2CCC(C1)C21C[C@H]([C@@H]2c3ccccc3-c3cncn32)[C@@H]1O` (relative stereo) [Example 22a, tert-butyl (2′S,3′R)-2′-hydroxy-3′-((R)-5H-imidazo[5,1-a]isoindol-5-yl)-3-azaspiro[bicyclo[3.2.1]octane-8,1′-cyclobutane]-3-carboxylate], for which the EC50 in assay [1] came to 410 nM; in assay [2], 2100 nM.

`CC(C)(C)OC(=O)N1[C@@H]2CC[C@H]1C[C@]1(C[C@H]([C@@H]3c4ccccc4-c4cncn43)[C@@H]1O)C2` [Example 12a, tert-butyl (1R,2′S,3r,3′R,5S)-2′-hydroxy-3′-((R)-5H-imidazo[5,1-a]isoindol-5-yl)-8-azaspiro[bicyclo[3.2.]octane-3,1′-cyclobutane]-8-carboxylate]: the EC50 was 1200 nM in assay [1] and 920 nM in assay [2].

In the case of `NS(=O)(=O)N1CCC2(CC1)C[C@H]([C@@H]1c3ccccc3-c3cncn31)[C@@H]2O` (single isomer, unassigned) [Example 11a], the results for the EC50 in assay [1] and in assay [2] were 660 nM and 20000 nM, respectively.

Turning to `CC(C)(C)OC(=O)N1[C@@H]2CC[C@H]1C[C@@]1(C[C@@H]([C@@H]3c4ccccc4-c4cncn43)[C@H]1O)C2` (single isomer, unassigned) [Example 12d], the EC50 stood at 9800 nM in assay [1] and 4300 nM in assay [2].

For the compound `CS(=O)(=O)N1CCC2(CC1)C[C@H]([C@@H]1c3ccccc3-c3cncn31)[C@@H]2O` (single isomer, unassigned) [Example 6a], the concentration for a half-maximal effect (EC50) in assay [1] came to 400 nM; in assay [2] it was 5900 nM.

Consider `NS(=O)(=O)N1CCC2(CC1)C[C@@H]([C@H]1c3ccccc3-c3cncn31)[C@@H]2O` (single isomer, unassigned) [Example 11d], for which the EC50 in assay [1] was 3000 nM.

As to `CC(C)(C)OC(=O)N1CC2CCC(C1)C21C[C@H]([C@H]2c3ccccc3-c3cncn32)[C@@H]1O` (stereo partly drawn) [Example 22c, tert-butyl (2′S,3′R)-2′-hydroxy-3′-((S)-5H-imidazo[5,1-a]isoindol-5-yl)-3-azaspiro[bicyclo[3.2.1]octane-8,1′-cyclobutane]-3-carboxylate], the EC50 in assay [2] came to 8800 nM.

In the case of `O=C(C1CCc2nncn2C1)N1CCC2(CC1)CC(C1c3ccccc3-c3cncn31)C2O` (stereo not shown) [compound 67, [3-hydroxy-2-(5H-imidazo[1,5-b]isoindol-5-yl)-7-azaspiro[3.5]nonan-7-yl]-(5,6,7,8-tetrahydro-[1,2,4]triazolo[4,3-a]pyridin-6-yl)methanone], the EC50 in assay [1] was found to be 23000 nM.

With `CC(=O)N1CCC2(CC[C@@H]([C@H]3c4ccccc4-c4cncn43)[C@H]2O)CC1` (single isomer, unassigned) [Example 10a], the concentration giving a half-maximal response (EC50) in assay [1] amounted to 24000 nM.

In the case of `CC(C)(C)OC(=O)N[C@H]1CC[C@]2(CC1)C[C@@H]([C@H]1c3ccccc3-c3cncn31)[C@@H]2O` (single isomer, unassigned) [Example 24o], in assay [1], the EC50 worked out at 20000 nM.
